Entries after “also recorded” stand apart in the source; their conditions may differ.

In test [1] the test system is γ-globin gene promoter and HSS-II region of the locus control region. Kind of test: In vivo footprinting (LM-PCR) of patients' erythroblasts before and during treatment. Set-up: species or system human. On the procedure:
To determine whether this increase was due to the transcriptional modulation of the γ-globin genes and, if so, to examine whether protein-DNA interactions of regulatory sequences for γ-globin gene expression have been changed, in vivo footprinting analysis of the γ-globin gene promoter and HSS-II region of the locus control region (LCR) were performed. […] Compared to conventional in vitro footprinting methods, which are ordinarily employed to analyze protein-DNA interactions for promoter regions and fail to disclose tissue-specific binding of nuclear proteins to cis-acting elements, in vivo footprinting technique is able to provide bona fide information on transcription factors binding to cis-acting elements that reflects in vivo situations.
Erythroid cell-rich fractions were prepared from patients' peripheral blood or bone marrow before and during treatment, and were in vivo methylated using DMS. […] All of the footprints were analyzed two or more times to ensure reproducibility.
In the γ-globin gene promoter, a DNA fragment extending up to −200 by relative to the transcription start site is sufficient to direct efficient transcription of the γ-globin genes (K. T. McDonagh et al., J. Biol. Chem. 266:11965-74, 1991; M. J. Urich Blood 75:990-99, 1990). […] Erythroblasts from a patient with sickle cell anemia, before and after butyrate treatment were analyzed. […]

Test [2] deals with erythroid progenitor cells cultured from human cord blood. Put plainly: Fetal globin expression in human cell cultures (3H-leucine labelled globin chains, densitometry). It is filed as cell-based. The procedure, abridged:
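Human cord-blood mononuclear cells were grown in IMDM with 30% FCS and 2 U/ml erythropoietin, with compound present for 12–13 days or overnight. Colonies were labelled with 3H-leucine and chased overnight in leucine-free medium with compound. Globin chains were quantified by electrophoresis with Coomassie densitometry and autoradiography, relative to untreated cells from the same donor.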

With `CCCC(=O)O` [AB, arginine butyrate], the “in vivo footprints of HSS-II” value in test [1] (erythroblasts from a treated sickle cell patient) is reported as “novel in vivo footprints that were not seen in a pre-treatment sample became apparent”. Also, in test [1] (erythroblasts of treated patients with sickle cell anemia or β-thalassemia), the “in vivo footprints over the γ-globin promoter” value is listed as “induces multiple transcription factors which interact with the γ-globin gene promoter; also recorded: degree of protection on G residues in FRE-γ1 consistently increased”.

Turning to `O=C(O)COc1ccccc1` [PAA, Phenoxyacetic acid], the “Gamma Increase” value in test [2] (Exp. A, 0.1 mM, 12-13 days, above untreated cells) was 6%; in test [2] (Exp. B, 0.5 mM, 12-13 days), 13%; in test [2] (Exp. C, 0.5 mM, overnight), 3.6%. Further, the “Gamma/(Gamma + Beta)” value in test [2] (Exp. A, 0.1 mM, 12-13 days, untreated 76.0%) amounted to 82.0%; in test [2] (Exp. B, 0.5 mM, 12-13 days, untreated 25.4%, 27.5%), 38.8%; in test [2] (Exp. C, 0.5 mM, overnight, untreated 52.0%), 55.6%.
